Assay [1] can be described thus: Antioxidant activity: inhibition of Fe2+-initiated lipid peroxidation in large unilamellar vesicles. The conditions noted are these: 100 ppm (100 μg/ml), at 20 min, relative to DMSO control. As to the method: The ability of withanolides to inhibit lipid peroxidation in a model system was used to determine whether they could act as antioxidants. The assay was conducted by using large unilamellar vesicles and peroxidation was initiated by adding Fe^2+.
Antioxidant activity. […] The percentage of inhibition was calculated with respect to DMSO control. All compounds were tested at 100 μg/ml and the positive controls BHA, BHT and TBHQ were tested at 10 μM.

The target in assay [2] is T1, COX-2 enzyme (human PGHS-2) isolated from insect cells (Homo sapiens, UniProt P35354).
T1 sequence (P35354 18-604): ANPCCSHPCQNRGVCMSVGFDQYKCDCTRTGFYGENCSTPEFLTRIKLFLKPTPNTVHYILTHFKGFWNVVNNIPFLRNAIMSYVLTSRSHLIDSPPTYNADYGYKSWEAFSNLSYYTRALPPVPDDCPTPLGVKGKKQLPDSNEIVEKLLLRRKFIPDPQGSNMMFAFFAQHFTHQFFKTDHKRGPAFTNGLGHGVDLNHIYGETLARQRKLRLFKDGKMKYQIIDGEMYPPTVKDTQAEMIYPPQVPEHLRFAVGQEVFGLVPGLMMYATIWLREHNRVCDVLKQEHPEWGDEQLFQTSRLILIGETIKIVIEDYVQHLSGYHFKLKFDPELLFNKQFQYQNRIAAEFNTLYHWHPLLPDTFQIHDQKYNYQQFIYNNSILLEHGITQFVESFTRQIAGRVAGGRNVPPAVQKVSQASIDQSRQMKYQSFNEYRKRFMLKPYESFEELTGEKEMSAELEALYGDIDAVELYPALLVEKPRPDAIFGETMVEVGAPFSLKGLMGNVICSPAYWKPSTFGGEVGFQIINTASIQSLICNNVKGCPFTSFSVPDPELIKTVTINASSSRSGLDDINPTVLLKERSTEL
The assay can be described thus: Cyclooxygenase enzyme inhibitory assay, COX-2 (initial rate of O2 uptake).
Description: (§1) The withanolides isolated from the leaves were evaluated for their cyclooxygenase (COX) enzyme inhibitory activity using prostaglandin endoperoxide synthase isozymes-1 (COX-1) and PGHS-2 (COX-2).
(§2) Cyclooxygenase enzyme inhibitory assay. COX-1 enzyme was prepared from ram seminal vesicles and COX-2 enzyme was isolated from insect cells cloned with human PGHS-2 enzyme. The inhibitory effects of test compounds on COX-1 and -2 were measured by monitoring the initial rate of 02 uptake using an oxygen electrode (Instech Laboratories, Plymouth Meeting, Pa.) attached to a biological oxygen monitor (Yellow Spring Instrument, Inc., Yellow Spring, Ohio) at 37° C. The enzymes were diluted (1:1) with Tris buffer (pH 7, 10-15 μl) and the test compounds (100 μg/ml, 10 μl) dissolved in DMSO were added to the assay mixture composed of 3 ml of 0.1 M Tris HCl, pH 7, 1 mmol phenol and 85 μg of hemoglobin. […] The instantaneous inhibition was measured by using Quick Log Data acquisition and control computer software (Strawberry Tree Inc., Sunnyvale, Calif., USA).

Assay [3] concerns the target T2, COX-1 enzyme (prostaglandin endoperoxide synthase isozyme-1) prepared from ram seminal vesicles (Ovis aries, UniProt P05979).
T2 sequence (P05979 25-600): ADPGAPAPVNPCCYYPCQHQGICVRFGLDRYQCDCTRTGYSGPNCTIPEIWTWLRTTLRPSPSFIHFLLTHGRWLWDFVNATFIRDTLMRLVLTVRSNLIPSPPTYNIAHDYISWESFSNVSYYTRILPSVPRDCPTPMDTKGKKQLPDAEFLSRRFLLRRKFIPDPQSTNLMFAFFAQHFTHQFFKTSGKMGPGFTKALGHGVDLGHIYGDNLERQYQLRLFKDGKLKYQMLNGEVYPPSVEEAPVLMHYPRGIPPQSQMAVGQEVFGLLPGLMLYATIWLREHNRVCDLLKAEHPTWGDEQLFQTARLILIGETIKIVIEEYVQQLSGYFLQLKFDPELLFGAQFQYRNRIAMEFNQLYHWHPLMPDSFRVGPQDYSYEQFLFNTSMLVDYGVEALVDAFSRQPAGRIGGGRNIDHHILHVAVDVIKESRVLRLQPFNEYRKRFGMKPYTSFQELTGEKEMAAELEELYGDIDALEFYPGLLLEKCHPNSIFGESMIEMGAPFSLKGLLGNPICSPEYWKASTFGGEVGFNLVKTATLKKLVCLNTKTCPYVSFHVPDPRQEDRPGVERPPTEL
The assay can be described thus: Cyclooxygenase enzyme inhibitory assay, COX-1 (initial rate of O2 uptake).
Description: as §1, §2

For the compound “4,16-dihydroxy-5β,6β-epoxyphysagulin D [Compound 4]”, the “inhibition of lipid peroxidation” value in assay [1] was found to be 40%. Besides, the COX-2 enzyme inhibition in assay [2] (50 μg/ml) amounted to 5%.
The matching figures for “4-(1-hydroxy-2,2-dimethylcyclo-propanone)-2,3-dihydrowithaferin A [Compound 5]”: “did not show activity” and 15%.
On to 23,24-dihydrowithaferin A [Compound 9], for which, in assay [1], the “inhibition of lipid peroxidation” value is listed as “did not show activity”. Also, the COX-1 activity result in assay [3] (100 μg/ml) is on record as “neither COX-1 nor COX-2 activities”. Further, the COX-2 enzyme inhibition result in assay [2] (100 μg/ml) is listed as “neither COX-1 nor COX-2 activities”.
Consider “27-O-β-D-glucopyranosyl physagulin D [Compound 2]”, for which the COX-2 enzyme inhibition in assay [2] (50 μg/ml) is listed as 9%.
Usually inhibition stands for the relative decrease from the control value, in per cent. The compound `CC(=O)Oc1ccccc1C(=O)O` [Aspirin, reference compound] showed a COX-1 inhibition in assay [3] (tested at 180 μg/ml) of 61%. Moreover, the inhibition at 180 µg/mL in assay [2] (read-out: COX-2 inhibition) was determined as 7%.
Regarding `CC1=C(CO[C@@H]2O[C@H](CO)[C@@H](O)[C@H](O)[C@H]2O)C(=O)OC([C@@H](C)[C@H]2CC[C@H]3[C@@H]4C[C@H]5O[C@]56[C@@H](O)[C@@H](O)CC(=O)[C@]6(C)[C@H]4CC[C@]23C)C1` (stereo partly drawn) [Compound 3, 27-O-β-D-glucopyranosyl viscosalactone B], the COX-2 enzyme inhibition in assay [2] (50 μg/ml) worked out at 7%.
In the case of `CC1=C(CO)C(=O)O[C@@H]([C@@H](C)[C@H]2CC[C@H]3[C@@H]4C[C@H]5O[C@]56[C@@H](O)C=CC(=O)[C@]6(C)[C@H]4CC[C@]23C)C1` [Compound 6, withaferin A], the “inhibition of lipid peroxidation” value in assay [1] is given as “did not show activity”. This compound yielded a COX-2 enzyme inhibition in assay [2] (100 μg/ml) of 39%.
As for `CC1=C(CO)C(=O)OC(C(C)C2CCC3C4CC5OC56C(O)CCC(=O)C6(C)C4CCC23C)C1` (centres unmarked) [Compound 7, 2,3-dihydrowithaferin A], the “inhibition of lipid peroxidation” value in assay [1] is on record as 5%. Further, the COX-2 enzyme inhibition in assay [2] (100 μg/ml) came out at 27%.
The matching figures for `CC1=C(CO)C(=O)O[C@@H]([C@@H](C)[C@H]2CC[C@H]3[C@@H]4C[C@H]5O[C@]56[C@@H](O)[C@@H](O)CC(=O)[C@]6(C)[C@H]4CC[C@]23C)C1` [Compound 8, viscosalactone B]: “did not show activity” and 35%.
Regarding `CC1=C(CO[C@@H]2O[C@H](CO)[C@@H](O)[C@H](O)[C@H]2O)C(=O)O[C@@H]([C@@H](C)[C@H]2CC[C@H]3[C@@H]4C[C@H]5O[C@]56[C@@H](O)C=CC(=O)[C@]6(C)[C@H]4CC[C@]23C)C1` [Compound 10, sitoindoside IX], the “inhibition of lipid peroxidation” value in assay [1] came to 44%. The inhibition at 100 µg/mL in assay [2] (read-out: COX-2 enzyme inhibition) amounted to 13%.
For `CC1=C(CO)C(=O)O[C@@H]([C@@H](C)[C@H]2CC[C@H]3[C@@H]4CC=C5C[C@@H](O[C@@H]6O[C@H](CO)[C@@H](O)[C@H](O)[C@H]6O)C[C@H](O)[C@]5(C)[C@H]4CC[C@]23C)C1` [Compound 11, physagulin D], the “inhibition of lipid peroxidation” value in assay [1] is on record as 55%. The compound further displayed a COX-2 enzyme inhibition in assay [2] (100 μg/ml) of 14%.
Take `CC1=C(CO)C(=O)O[C@@H]([C@@H](C)[C@H]2CC[C@H]3[C@@H]4CC=C5C[C@@H](O[C@@H]6O[C@H](CO[C@@H]7O[C@H](CO)[C@@H](O)[C@H](O)[C@H]7O)[C@@H](O)[C@H](O)[C@H]6O)C[C@H](O)[C@]5(C)[C@H]4CC[C@]23C)C1` [Compound 12, withanolide IV]: in assay [1], the “inhibition of lipid peroxidation” value was “did not show activity”. Also, in assay [2] (100 μg/ml), the COX-2 enzyme inhibition worked out at 23%.
Regarding `COc1ccc2cc([C@H](C)C(=O)O)ccc2c1` [naproxen, reference compound], the inhibition at 2.5 µg/mL in assay [3] (read-out: COX-1 inhibition) is 79%; in assay [2] (read-out: COX-2 inhibition), 95%.
“physagulin D (1→6)-β-D-glucopyranosyl-(1→4)-β-D-glucopyranoside [Compound 1]” displayed a COX-2 enzyme inhibition in assay [2] (50 μg/ml) of 15%.

Values taken from patent US7264832B2, “Cyclooxygenase-2 inhibitory withanolide compositions and method” (Board of Trustees of Michigan State University, priority 2002, dated 2007).
